According to US10766865B2, “PKM2 modulators and methods for their use” (TOLERO PHARMACEUTICALS, INC., priority 2012, dated 2020):

Key:
A549 cells = test: Cell Proliferation Assay, A549; assay type: cell-based; conditions: Homo sapiens; A549, BME media lacking nonessential amino acids, 72 hours, ATPlite; read-out: Percent viability (EC50), Average
Protocol: (§1) Cells were seeded at 5000 cells per well (in 96-well plate) in BME media lacking nonessential amino acids+5% dialyzed serum. After 18 hours, DMSO or compound in 0.1% final concentration DMSO was added.
(§2) Percent viability (EC50) of A549 and PC3 cells was tested against certain exemplary compounds according to the above general procedures.

PC3 cells = test: Cell Proliferation Assay, PC3; assay type: cell-based; conditions: Homo sapiens, PC-3; PC3, BME media lacking nonessential amino acids, 72 hours, ATPlite; read-out: Percent viability (EC50), Average
Protocol: as §1, §2

PKM2 = PKM2 (Homo sapiens, UniProt P14618); test: PKM2 Biochemical Assay; conditions: for Max. Resp.: % maximum response in a biochemical assay as compared with Fructose 1,6-bisphosphate
Sequence of PKM2 (P14618 whole entry): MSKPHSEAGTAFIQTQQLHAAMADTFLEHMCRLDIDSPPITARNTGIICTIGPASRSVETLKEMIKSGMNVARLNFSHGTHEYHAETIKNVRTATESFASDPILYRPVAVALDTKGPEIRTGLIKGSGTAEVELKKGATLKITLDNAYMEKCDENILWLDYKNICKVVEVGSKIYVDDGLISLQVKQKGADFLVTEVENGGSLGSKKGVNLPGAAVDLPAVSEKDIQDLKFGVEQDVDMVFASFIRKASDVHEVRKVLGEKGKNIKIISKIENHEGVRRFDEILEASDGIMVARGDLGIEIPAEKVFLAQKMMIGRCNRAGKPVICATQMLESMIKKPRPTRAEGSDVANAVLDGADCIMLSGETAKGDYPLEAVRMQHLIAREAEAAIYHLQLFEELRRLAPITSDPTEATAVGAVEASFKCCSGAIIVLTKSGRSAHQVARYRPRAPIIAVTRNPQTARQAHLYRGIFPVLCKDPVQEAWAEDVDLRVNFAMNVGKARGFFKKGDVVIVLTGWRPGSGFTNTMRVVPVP
Protocol: Full length, human PKM2 enzyme was obtained from Promab (Richmond, Calif.). All reagents, unless otherwise noted, were obtained from Sigma (St. Louis, Mo.).
Compounds were pre-incubated with 2 nM PKM2 in reaction buffer (50 mM Tris-HCl, pH 8.0, 200 mM KCl, 30 mM MgCl2, 2 mM DTT, 5% DMSO) for 30 min at ambient temperature. […] After 30 min, ATP formation was measured by Kinase Glo (Promega, Madison, Wis.), and AC50 values were determined using Prism (GraphPad Software, Inc., La Jolla, Calif.).

| Max. Resp. (PKM2) | SMILES | further results |
| --- | --- | --- |
| 100% | Nc1cccc(Cl)c1CN(CCN1CCC(O)C1)C(=O)c1cc(C(F)(F)F)n[nH]1 (stereo not drawn) [Example 234, N-(2-amino-6-chlorobenzyl)-3-(trifluoromethyl)-N-(2-(3-hydroxypyrrolidin-1-yl)ethyl)-1H-pyrazole-5-carboxamide] | EC50 (A549 cells): 45.8 nM; EC50 (PC3 cells): 92.4 nM |
| 102% | O=C(c1cc(C(F)(F)F)n[nH]1)N(CCC1CCS(=O)(=O)CC1)Cc1ccccc1Cl [Example 75, N-(2-chlorobenzyl)-N-(2-(1,1-dioxidotetrahydro-2H-thiopyran-4-yl)ethyl)-3-(trifluoromethyl)-1H-pyrazole-5-carboxamide] | EC50 (A549 cells): 148 nM; EC50 (PC3 cells): 223 nM |
| 73% | Nc1cccc(Cl)c1CN(CCN1CCCC(F)C1)C(=O)c1cc(C(F)(F)F)n[nH]1 (stereo not drawn) [Example 236, N-(2-amino-6-chlorobenzyl)-3-(trifluoromethyl)-N-(2-(3-fluoropiperidin-1-yl)ethyl)-1H-pyrazole-5-carboxamide] | EC50 (A549 cells): 8.1 nM; EC50 (PC3 cells): 33 nM |
|  | Nc1cccc(F)c1CN(CCC1CCS(=O)(=O)CC1)C(=O)c1cc(C(F)(F)F)n[nH]1 [Example 91, N-(2-amino-6-fluorobenzyl)-N-(2-(1,1-dioxidotetrahydro-2H-thiopyran-4-yl)ethyl)-3-(trifluoromethyl)-1H-pyrazole-5-carboxamide] | EC50 (A549 cells): 20.3 nM; EC50 (PC3 cells): 47.3 nM |
| 100% | O=C(c1cc(C(F)(F)F)n[nH]1)N(CCN1CCCCCC1)Cc1c(Cl)cccc1[N+](=O)[O-] [Example 211, N-(2-chloro-6-nitrobenzyl)-N-(2-(azepan-1-yl)ethyl)-3-(trifluoromethyl)-1H-pyrazole-5-carboxamide] |  |
| 100% | O=C(c1cc(C(F)(F)F)n[nH]1)N(CCN1CCCC1)Cc1ccccc1Cl [Example 162, N-(2-chlorobenzyl)-3-(trifluoromethyl)-N-(2-(pyrrolidin-1-yl)ethyl)-1H-pyrazole-5-carboxamide] |  |
| 88% | O=C(c1cc(C(F)(F)F)n[nH]1)N(CCC1CCCOC1)Cc1ccccc1Cl (stereo not drawn) [Example 36] |  |
| 118% | O=C(c1cc(C(F)(F)F)n[nH]1)N(CCC1CCOCC1)Cc1ccccc1F [Example 41] |  |
| 60% | CC1CC(C)CN(CCN(Cc2ccccc2Cl)C(=O)c2cc(C(F)(F)F)n[nH]2)C1 (stereo not drawn) [Example 188, N-(2-chlorobenzyl)-3-(trifluoromethyl)-N-(2-(3,5-dimethylpiperidin-1-yl)ethyl)-1H-pyrazole-5-carboxamide] |  |
| 100% | Nc1ccc(F)c(CN(CCN2CCCCCC2)C(=O)c2cc(C(F)(F)F)n[nH]2)c1 [Example 214, N-(5-amino-2-fluorobenzyl)-N-(2-(azepan-1-yl)ethyl)-3-(trifluoromethyl)-1H-pyrazole-5-carboxamide] |  |
| 57% | O=C(c1cc(C(F)(F)F)n[nH]1)N(Cc1ccccc1F)C1CCCCC1 [Example 153, N-(2-fluorobenzyl)-N-cyclohexyl-3-(trifluoromethyl)-1H-pyrazole-5-carboxamide] |  |
| 96% | O=C(c1cc(C(F)(F)F)n[nH]1)N(CCC1CCS(=O)(=O)C1)Cc1ccccn1 (stereo not drawn) [Example 88] |  |
| 100% | CO[C@H]1CC[C@H](N(Cc2ccccc2Cl)C(=O)c2cc(C(F)(F)F)n[nH]2)CC1 [Example 52] |  |
| 100% | O=C(c1cc(C(F)(F)F)n[nH]1)N(CCN1CCCCCC1)Cc1ccc(O)cc1Cl [Example 194, N-(2-chloro-4-hydroxybenzyl)-N-(2-(azepan-1-yl)ethyl)-3-(trifluoromethyl)-1H-pyrazole-5-carboxamide] |  |
| 72% | COCCCN(Cc1ccccc1F)C(=O)c1cc(C(F)(F)F)n[nH]1 [Example 30] | AC50 (PKM2): 9.77 µM |
| 100% | O=C(c1cc(C(F)(F)F)n[nH]1)N(Cc1ccc(O)cc1Cl)CC1CCC1 [Example 124, N-(2-chloro-4-hydroxybenzyl)-N-(cyclobutylmethyl)-3-(trifluoromethyl)-1H-pyrazole-5-carboxamide] |  |
| 37% | CC(C)OCCN(Cc1ccccc1Cl)C(=O)c1cc(C(F)(F)F)n[nH]1 [Example 37] |  |
| 101% | CCO[C@H]1CC[C@H](N(Cc2ccccc2F)C(=O)c2cc(C(F)(F)F)n[nH]2)CC1 [Example 55] |  |
| 100% | Nc1cccc(Cl)c1CN(CCN1CC[C@@H](F)C1)C(=O)c1cc(C(F)(F)F)n[nH]1 [Example 242, N-(2-amino-6-chlorobenzyl)-3-(trifluoromethyl)-N-(2-((R)-3-fluoropyrrolidin-1-yl)ethyl)-1H-pyrazole-5-carboxamide] |  |
| 106% | CC(c1ccccc1)N(CC1CCC1)C(=O)c1cc(C(F)(F)F)n[nH]1 (stereo not drawn) [Example 5, 3-trifluoromethyl-N-(cyclobutylmethyl)-N-(1-phenylethyl)-1H-pyrazole-5-carboxamide] |  |

| Max. Resp. (PKM2) | SMILES | further results |
| --- | --- | --- |
| 100% | O=C(c1cc(C(F)(F)F)n[nH]1)N(CCN1CCCCCC1)Cc1c(F)cccc1F [Example 198, N-(2,6-difluorobenzyl)-N-(2-(azepan-1-yl)ethyl)-3-(trifluoromethyl)-1H-pyrazole-5-carboxamide] |  |
| 100% | O=C(c1cc(C(F)(F)F)n[nH]1)N(Cc1cccc(F)c1O)CC1CCC1 [Example 136, N-(3-fluoro-2-hydroxybenzyl)-N-(cyclobutylmethyl)-3-(trifluoromethyl)-1H-pyrazole-5-carboxamide] |  |
| 100% | Nc1cccc(Cl)c1CN(CCN1CCCC1)C(=O)c1cc(C(F)(F)F)n[nH]1 [Example 222, N-(2-amino-6-chlorobenzyl)-3-(trifluoromethyl)-N-(2-(pyrrolidin-1-yl)ethyl)-1H-pyrazole-5-carboxamide] |  |
| 100% | CCN(CC)CCN(Cc1cccc2[nH]cnc12)C(=O)c1cc(C(F)(F)F)n[nH]1 [Example 160, N-((1H-benzo[d]imidazol-4-yl)methyl)-N-(2-(diethylamino)ethyl)-3-(trifluoromethyl)-1H-pyrazole-5-carboxamide] |  |
| 29% | CN1CCC(CN(Cc2ccccc2F)C(=O)c2cc(C(F)(F)F)n[nH]2)CC1 [Example 100] |  |
| 100/100% | CCC1CCN(CCN(Cc2ccccc2Cl)C(=O)c2cc(C(F)(F)F)n[nH]2)CC1 [Example 199, N-(2-chlorobenzyl)-N-(2-(4-ethylpiperidin-1-yl)ethyl)-3-(trifluoromethyl)-1H-pyrazole-5-carboxamide] |  |
| 98% | O=C(c1cc(C(F)(F)F)n[nH]1)N(CCC1CCSCC1)Cc1ccc(O)cc1F [Example 86] |  |
| 71% | O=C(c1cc(C(F)(F)F)n[nH]1)N(Cc1ccccc1F)CC1CCS(=O)(=O)CC1 [Example 71] |  |
|  | CC(C)(O)CCN(Cc1ccc(O)cc1F)C(=O)c1cc(C(F)(F)F)n[nH]1 [Example 131, N-(2-fluoro-4-hydroxybenzyl)-3-(trifluoromethyl)-N-(3-hydroxy-3-methylbutyl)-1H-pyrazole-5-carboxamide] | AC50 (PKM2): 23 µM |
| 100% | O=C(c1cc(C(F)(F)F)n[nH]1)N(CCC1CC1)Cc1ccccc1F [Example 149, N-(2-fluorobenzyl)-N-(2-cyclopropylethyl)-3-(trifluoromethyl)-1H-pyrazole-5-carboxamide] |  |
| 100% | O=C(c1cc(C(F)(F)F)n[nH]1)N(CCN1CCC(F)(F)CC1)Cc1ccccc1Cl [Example 205, N-(2-chlorobenzyl)-3-(trifluoromethyl)-N-(2-(4,4-difluoropiperidin-1-yl)ethyl)-1H-pyrazole-5-carboxamide] |  |
| 48% | CO[C@H]1CC[C@H](N(Cc2ncccc2Cl)C(=O)c2cc(C(F)(F)F)n[nH]2)CC1 [Example 56] |  |
| 100% | CCCN(CC)CCN(Cc1ccccc1Cl)C(=O)c1cc(C(F)(F)F)n[nH]1 [Example 209, N-(2-chlorobenzyl)-N-(2-(ethyl-propylamino)ethyl)-3-(trifluoromethyl)-1H-pyrazole-5-carboxamide] |  |
| 100% | CCN(CC)CCN(Cc1ccccc1Cl)C(=O)c1cc(Br)n[nH]1 [Example 175, N-(2-chlorobenzyl)-3-bromo-N-(2-(diethylamino)ethyl)-1H-pyrazole-5-carboxamide] |  |
| 45% | Nc1cc(C(=O)N(Cc2ccc(O)cc2F)CC2CCC2)[nH]n1 [Example 3, 3-amino-N-(cyclobutylmethyl)-N-(2-fluoro-4-hydroxybenzyl)-1H-pyrazole-5-carboxamide] |  |
| 59% | O=C(c1cc(C(F)(F)F)n[nH]1)N(Cc1ccccc1Cl)C1CCOCC1 [Example 35] |  |
| 100% | CCCN(CC)CCN(Cc1c(N)cccc1F)C(=O)c1cc(C(F)(F)F)n[nH]1 [Example 240, N-(2-fluoro-6-aminobenzyl)-N-(2-(ethyl-propylamino)ethyl)-3-(trifluoromethyl)-1H-pyrazole-5-carboxamide] |  |
| 35% | O=C(c1cc(C(F)(F)F)n[nH]1)N(CCC1CCS(=O)(=O)C1)Cc1ccncc1 (stereo not drawn) [Example 89] |  |
| 100% | CCN(CC)CCN(Cc1cccc2[nH]ccc12)C(=O)c1cc(C(F)(F)F)n[nH]1 [Example 161, N-((1H-indol-4-yl)methyl)-N-(2-(diethylamino)ethyl)-3-(trifluoromethyl)-1H-pyrazole-5-carboxamide] |  |
| 102% | O=C(c1cc(C(F)(F)F)n[nH]1)N(CCC1CCS(=O)(=O)C1)Cc1c(F)cccc1F (stereo not drawn) [Example 66] |  |

| SMILES | Max. Resp. (PKM2) | further results |
| --- | --- | --- |
| CCCN(CC)CCN(Cc1c(N)cccc1Cl)C(=O)c1cc(C(F)(F)F)n[nH]1 [Example 223, N-(2-chloro-6-aminobenzyl)-N-(2-(ethyl-propylamino)ethyl)-3-(trifluoromethyl)-1H-pyrazole-5-carboxamide] | 100% | EC50 (A549 cells): 33.5 nM; EC50 (PC3 cells): 54 nM |
